From patent publication US4148785A, “Analgesic polypeptide” (American Home Products Corporation, priority 1978, dated 1979)
Where a SMILES comes first, the peptide text is derived from it. [ ]: non-standard residue; d: D form.

Experiments:
[1] = intracerebroventricular; cited from earlier work
[2] = system: rats; conditions: injection in the brain ventricle in rats; cited from earlier work
[3] = system: mouse vas deferens; conditions: cited from earlier work
[4] = system: guinea pig ileum; conditions: cited from earlier work
[5] = system: opiate receptor; conditions: brain homogenates; cited from earlier work
[6] = system: rat; assay: rat tail flick test (method of D-Amour and Smith), analgesic activity; format: in vivo
Excerpt: The representative polypeptide of this invention Tyr--D--Ala--Gly--Phe--D--Val--NH2, gave the following results in the reference standard rat tail flick test: […]

Molecule: Tyr--D--Ala--Gly--Phe--D--Leu
- activity when administered intracerebroventricularly [1]: activity

Molecule: H--Tyr--Gly--Gly--Phe--Met--OH [methionine-enkephalin]
- analgesia [2]: profound analgesia that is fully reversible by naloxone
- block of electrically evoked contractions [3]: block electrically evoked contractions
- block of electrically evoked contractions [4]: block electrically evoked contractions
- inhibition of stereospecific receptor binding of 3H-naloxone [5]: inhibit the sterospecific receptor binding

Molecule: H--Tyr--Gly--Gly--Phe--Leu--OH [leucine-enkephalin]
- analgesia [2]: profound analgesia that is fully reversible by naloxone
- block of electrically evoked contractions [3]: block electrically evoked contractions
- block of electrically evoked contractions [4]: block electrically evoked contractions
- inhibition of stereospecific receptor binding of 3H-naloxone [5]: inhibit the sterospecific receptor binding

Molecule: CC(C)[C@@H](NC(=O)[C@H](Cc1ccccc1)NC(=O)CNC(=O)[C@@H](C)NC(=O)[C@@H](N)Cc1ccc(O)cc1)C(N)=O [Tyr--D--Ala--Gly--Phe--D--Val--NH2, L-tyrosyl-D-alanylglycyl-L-phenylalanyl-D-valine amide] (H-Y[dA]GF[dV]-NH2)
- No. showing analgesia/No. tested ([6]; intravenous 1.0 milligram/kilogram, 15 minutes after administration): 2/6
- No. showing analgesia/No. tested ([6]; intravenous 1.0 milligram/kilogram, 30 minutes after administration): 1/6
- No. showing analgesia/No. tested ([6]; intravenous 1.0 milligram/kilogram, 60 minutes after administration): 0/6
- No. showing analgesia/No. tested ([6]; intravenous 2.5 milligram/kilogram, 15 minutes after administration): 5/6
- No. showing analgesia/No. tested ([6]; intravenous 2.5 milligram/kilogram, 30 minutes after administration): 3/5
- No. showing analgesia/No. tested ([6]; intravenous 2.5 milligram/kilogram, 60 minutes after administration): 3/5
- No. showing analgesia/No. tested ([6]; intravenous 5.0 milligram/kilogram, 15 minutes after administration): 6/6
- No. showing analgesia/No. tested ([6]; intravenous 5.0 milligram/kilogram, 30 minutes after administration): 5/6
- No. showing analgesia/No. tested ([6]; intravenous 5.0 milligram/kilogram, 60 minutes after administration): 0/5
- No. showing analgesia/No. tested ([6]; intravenous .25 milligram/kilogram, 15 minutes after administration): 1/6
- No. showing analgesia/No. tested ([6]; intravenous .25 milligram/kilogram, 30 minutes after administration): 0/6
- No. showing analgesia/No. tested ([6]; intravenous .25 milligram/kilogram, 60 minutes after administration): 1/6
- No. showing analgesia/No. tested ([6]; intravenous .5 milligram/kilogram, 15 minutes after administration): 4/6
- No. showing analgesia/No. tested ([6]; intravenous .5 milligram/kilogram, 30 minutes after administration): 4/6
- No. showing analgesia/No. tested ([6]; intravenous .5 milligram/kilogram, 60 minutes after administration): 1/6
- No. showing analgesia/No. tested ([6]; subcutaneous 5.0 milligram/kilogram, 30 minutes after administration): 2/6
- No. showing analgesia/No. tested ([6]; subcutaneous 5.0 milligram/kilogram, 60 minutes after administration): 1/6
- No. showing analgesia/No. tested ([6]; subcutaneous 5.0 milligram/kilogram, 90 minutes after administration): 0/6
- No. showing analgesia/No. tested ([6]; subcutaneous 5.0 milligram/kilogram, 120 minutes after administration): 0/6
- No. showing analgesia/No. tested ([6]; subcutaneous 20.0 milligram/kilogram, 30 minutes after administration): 6/6
- No. showing analgesia/No. tested ([6]; subcutaneous 20.0 milligram/kilogram, 60 minutes after administration): 3/6
- No. showing analgesia/No. tested ([6]; subcutaneous 20.0 milligram/kilogram, 90 minutes after administration): 3/6
- No. showing analgesia/No. tested ([6]; subcutaneous 20.0 milligram/kilogram, 120 minutes after administration): 2/6
